These are literature values, as cited in patent US20090022788A1, “DIETARY SUPPLEMENT FOR HEALING OR REGRESSING SYMPTOMS OF GASTROESOPHAGEAL REFLUX DISEASE, GASTRITIS AND ULCERS” (priority 2006, published 2009).

For the data set, the system named is spontaneous gastric ulcers. To be noted: young pigs, 4-week administration in the diet.

Take `COc1ccc2[nH]cc(CCNC(C)=O)c2c1` [melatonin, N-Acetyl-5-methoxytryptamine]: the “incidence of spontaneous gastric ulcers” value is given as “significantly reduced”.
